Laboratory results: patent publication EP4741390A1, “BIARYL RING COMPOUND, INTERMEDIATE THEREOF, PREPARATION METHOD THEREFOR AND USE THEREOF” (Hangzhou Synrx Therapeutics Biomedical Technology Co., Ltd., priority 2023, dated 2025)
Read-outs that look alike come from different tables or passages of the source.

Key:
[1] = biological target: helicase domain of the Pol θ protein (Homo sapiens, UniProt O75417); assay type: biochemical
Method: Biochemical Activity Assay (ADP Glo Assay) of Pol θ Inhibitor
The specific assay method was as follows: • 1) The helicase domain of the Pol θ protein was purified by an insect system, to obtain the protein with a purity of >90%. ssDNA (5'-[sequence]-3', Hangzhou Yocon Biotechnology Co., Ltd.) was ordered as the substrate for the Pol θ protein; and a reaction buffer containing 10 mM DTT (Dithiothreitol), 20 mM MgCl2 and Tris-HCl pH 7.5 was prepared. • 2) The 2x ssDNA-Pol θ premix was prepared; the reaction was conducted in a 384-well plate; a control group with only buffer is set, and the premix was added to the rest of the groups.

DLD1 BRCA2-/- cells = experiment: Cell viability assay (CTG assay), DLD1 BRCA2-/- cells; assay type: cell-based; settings: Homo sapiens, DLD-1, 240 h; CellTiter Glo, read on Day 10, initial concentration 30 µM
Method: (§1) 2. Cell Viability Assay of Pol θ Inhibitor
(§2) The cell viability assay, i.e., the commonly used CTG assay, was conducted for the efficacy of the inhibitor in vitro using the CellTiter Glo reagent (Promega, G7573).

DLD1 wild type = experiment: Cell viability assay (CTG assay), DLD1 wild type cells; assay type: cell-based; settings: Homo sapiens, DLD-1, 240 h; CellTiter Glo, read on Day 10, initial concentration 30 µM
Method: as §1, §2

[2] = ATPase activity, ADP-Glo, ssDNA substrate, 60 min at room temperature, initial concentration 10 µM, read-out: Biochemical experiment IC50

Chain of helicase domain of the Pol θ protein (O75417 102-554 limits assumed): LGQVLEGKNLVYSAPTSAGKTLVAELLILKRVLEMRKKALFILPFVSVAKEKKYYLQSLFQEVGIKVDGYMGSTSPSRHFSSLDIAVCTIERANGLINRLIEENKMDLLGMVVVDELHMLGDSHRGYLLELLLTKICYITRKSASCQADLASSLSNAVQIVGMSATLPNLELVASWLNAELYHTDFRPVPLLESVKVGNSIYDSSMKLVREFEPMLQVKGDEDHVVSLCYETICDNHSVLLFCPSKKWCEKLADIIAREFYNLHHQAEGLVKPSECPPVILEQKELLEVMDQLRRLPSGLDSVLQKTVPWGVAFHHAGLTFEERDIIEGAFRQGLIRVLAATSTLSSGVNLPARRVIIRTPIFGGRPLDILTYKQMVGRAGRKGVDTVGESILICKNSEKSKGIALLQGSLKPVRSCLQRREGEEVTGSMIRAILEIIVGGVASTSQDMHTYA

Compound	IC50 [1] [nM]	IC50 (DLD1 BRCA2-/- cells) [nM]	IC50 (DLD1 wild type) [nM]	IC50 [1, 2] [nM]
COc1cnc(C(F)F)cc1-c1cc(-n2cccc(F)c2=O)ncc1C(=O)Nc1nc(C2CC2)ns1 [Example 1, N-(3-cyclopropyl-1,2,4-thiadiazol-5-yl)-2"-difluoromethyl-3-fluoro-5"-methoxy-2-oxo-2H-[1,2':4',4"-tripyridin]-5'-carboxamide]	6.92	48.2	> 50000	
COc1cnc(C(F)F)cc1-c1cc(-n2cccc(F)c2=O)ncc1C(=O)Nc1nc(-c2ccncc2)cs1 [Example 2, 2"-(difluoromethyl)-3-fluoro-5"-methoxy-2-oxo-N-(4-(pyridin-4-yl)thiazol-2-yl)-2H-[1,2':4',4"-terpyridine]-5'-carboxamide]		41.2	> 50000	5.58
COc1cnc(C(F)F)cc1-c1cc(-n2cccc(F)c2=O)ncc1C(=O)Nc1nc(C2CC2)cs1 [Example 3, N-(4-cyclopropylthiazol-2-yl)-2"-(difluoromethyl)-3-fluoro-5"-methoxy-2-oxo-2H-[1,2':4',4"-terpyridine]-5'-carboxamide]		79.4	> 50000	10.3
COc1cnc(C(F)F)cc1-c1cc(-n2cccc(F)c2=O)ncc1C(=O)Nc1nccs1 [Example 4, 2"-(difluoromethyl)-3-fluoro-5"-methoxy-2-oxo-N-(thiazol-2-yl)-2H-[1,2':4',4"-terpyridine]-5'-carboxamide]		43	> 50000	20.9
COc1cnc(Cl)cc1-c1cc(C)ncc1C(=O)Nc1nc(C2CC2)ns1 [Example 5, 2'-chloro-N-(3-cyclopropyl-1,2,4-thiadiazol-5-yl)-5'-methoxy-6-methyl-[4,4'-bipyridine]-3-carboxamide]			> 50000	132
COc1cnc(C(F)F)cc1-c1cc(-n2cccc(F)c2=O)ncc1C(=O)Nc1nc(C(C)(C)C)ns1 [Example 6, N-(3-(tert-butyl)-1,2,4-thiadiazol-5-yl)-2"-(difluoromethyl)-3-fluoro-5"-methoxy-2-oxo-2H-[1,2':4',4"-terpyridine]-5'-carboxamide]		52.1	> 50000	15.2
COc1nsc(NC(=O)c2cnc(-n3cccc(F)c3=O)cc2-c2cc(C(F)F)ncc2OC)n1 [Example 7, 2"-(difluoromethyl)-3-fluoro-5"-methoxy-N-(3-methoxy-1,2,4-thiadiazol-5-yl)-2-oxo-2H-[1,2':4',4"-terpyridine]-5'-carboxamide]		56.2	> 50000	4.02
COc1cnc(C(F)F)cc1-c1cc(-n2cccc(F)c2=O)ncc1C(=O)Nc1nc(-c2ccccn2)ns1 [Example 8, 2"-(difluoromethyl)-3-fluoro-5"-methoxy-2-oxo-N-(3-(pyridin-2-yl)-1,2,4-thiadiazol-5-yl)-2H-[1,2':4',4"-terpyridine]-5'-carboxamide]		56.2	19200	8.23
COc1cnc(C(F)F)cc1-c1cc(-n2cccc(F)c2=O)ncc1C(=O)Nc1nc(-c2ccccc2)ns1 [Example 9, 2"-(difluoromethyl)-3-fluoro-5"-methoxy-2-oxo-N-(3-phenyl-1,2,4-thiadiazol-5-yl)-2H-[1,2':4',4"-terpyridine]-5'-carboxamide]		32.9	> 50000	13.4
COc1cnc(C(F)F)cc1-c1cc(-n2cccc(F)c2=O)ncc1C(=O)Nc1ncns1 [Example 10, 2"-(difluoromethyl)-3-fluoro-5"-methoxy-2-oxo-N-(1,2,4-thiadiazol-5-yl)-2H-[1,2':4',4''-terpyridine]-5'-carboxamide]		89.1	> 50000	5.81
COc1cnc(C(F)F)cc1-c1cc(-n2cccc(F)c2=O)ncc1C(=O)Nc1nc(C)ns1 [Example 11, 2"-(difluoromethyl)-3-fluoro-5"-methoxy-N-(3-methyl-1,2,4-thiadiazol-5-yl)-2-oxo-2H-[1,2':4',4"-terpyridine]-5'-carboxamide]		171	> 50000	14
COc1cnc(C(F)F)cc1-c1cc(-n2cccc(F)c2=O)ncc1C(=O)Nc1nc(-c2ccc(F)cc2)ns1 [Example 12, 2"-(difluoromethyl)-3-fluoro-N-(3-(4-fluorophenyl)-1,2,4-thiadiazol-5-yl)-5"-methoxy-2-oxo-2H-[1,2':4',4"-terpyridine]-5'-carboxamide]		25.1	23300	
COc1cnc(C(F)F)cc1-c1cc(-n2cccc(F)c2=O)ncc1C(=O)Nc1nc(-c2cccnc2)ns1 [Example 13, 2"-(difluoromethyl)-3-fluoro-5"-methoxy-2-oxo-N-(3-(pyridin-3-yl)-1,2,4-thiadiazol-5-yl)-2H-[1,2':4',4"-terpyridine]-5'-carboxamide]		54.1	> 50000	17.6
COc1cnc(C(F)F)cc1-c1cc(-n2cccc(F)c2=O)ncc1C(=O)Nc1nc(-c2c(C)cnn2C)ns1 [Example 14, 2"-(difluoromethyl)-N-(3-(1,4-dimethyl-1H-pyrazol-5-yl)-1,2,4-thiadiazol-5-yl)-3-fluoro-5"-methoxy-2-oxo-2H-[1,2':4',4"-terpyridine]-5'-carboxamide]		4.82	> 50000	3.63
COc1cnc(C(F)F)cc1-c1cc(-n2cccc(F)c2=O)ncc1C(=O)Nc1nc(-c2ccncc2)ns1 [Example 15, 2"-(difluoromethyl)-3-fluoro-5"-methoxy-2-oxo-N-(3-(pyridin-4-yl)-1,2,4-thiadiazol-5-yl)-2H-[1,2':4',4"-terpyridine]-5'-carboxamide]		10.8	> 5000	5.58
CCCc1nsc(NC(=O)c2cnc(-n3cccc(F)c3=O)cc2-c2cc(C(F)F)ncc2OC)n1 [Example 16, 2"-(difluoromethyl)-3-fluoro-5"-methoxy-2-oxo-N-(3-propyl-1,2,4-thiadiazol-5-yl)-2H-[1,2':4',4"-terpyridine]-5'-carboxamide]		10	> 5000	9.69
COc1cnc(C(F)F)cc1-c1cc(-n2cccc(F)c2=O)ncc1C(=O)Nc1nc(C(C)C)ns1 [Example 17, 2"-(difluoromethyl)-3-fluoro-N-(3-isopropyl-1,2,4-thiadiazol-5-yl)-5"-methoxy-2-oxo-2H-[1,2':4',4"-terpyridine]-5'-carboxamide]		3.98	> 5000	8.98
COc1cnc(C(F)F)cc1-c1cc(-n2cccc(F)c2=O)ncc1C(=O)Nc1nc(-c2ncccn2)ns1 [Example 18, 2"-(difluoromethyl)-3-fluoro-5"-methoxy-2-oxo-N-(3-(pyrimidin-2-yl)-1,2,4-thiadiazol-5-yl)-2H-[1,2':4',4"-terpyridine]-5'-carboxamide]		5.62	4300	25.1
COc1cnc(C(F)F)cc1-c1cc(-n2cccc(F)c2=O)ncc1C(=O)Nc1nc(-c2cnccn2)ns1 [Example 19, 2"-(difluoromethyl)-3-fluoro-5"-methoxy-2-oxo-N-(3-(pyrazin-2-yl)-1,2,4-thiadiazol-5-yl)-2H-[1,2':4',4"-terpyridine]-5'-carboxamide]		56.2	> 5000	32.1
COc1cnc(C(F)F)cc1-c1cc(-n2cccc(F)c2=O)ncc1C(=O)Nc1nc(Cl)ns1 [Example 20, N-(3-chloro-1,2,4-thiadiazol-5-yl)-2"-(difluoromethyl)-3-fluoro-5"-methoxy-2-oxo-2H-[1,2':4',4"-terpyridine]-5'-carboxamide]		22.4	> 5000	8.31
COc1cnc(Cl)cc1-c1cc(-n2cccc(F)c2=O)ncc1C(=O)Nc1nc(C2CC2)ns1 [Example 21, 2"-chloro-N-(3-cyclopropyl-1,2,4-thiadiazol-5-yl)-3-fluoro-5"-methoxy-2-oxo-2H-[1,2':4',4"-terpyridine]-5'-carboxamide]		7.64	> 5000	8.57
COc1cnc(C(F)F)cc1-c1cc(-n2cccc(F)c2=O)ncc1C(=O)Nc1nc(-c2c(C)noc2C)ns1 [Example 22, 2"-(difluoromethyl)-N-(3-(3,5-dimethylisoxazol-4-yl)-1,2,4-thiadiazol-5-yl)-3-fluoro-5"-methoxy-2-oxo-2H-[1,2':4',4"-terpyridine]-5'-carboxamide]		5.01	> 5000	3.41
COc1cnc(C(F)F)cc1-c1cc(-n2cccc(F)c2=O)ncc1C(=O)Nc1nc(N2CC3CC(C2)N3)ns1 [Example 27, N-(3-(3,6-diazabicyclo[3.1.1]heptan-3-yl)-1,2,4-thiadiazol-5-yl)-2"-(difluoromethyl)-3-fluoro-5"-methoxy-2-oxo-2H-[1,2':4',4"-terpyridin]-5'-carboxamide]			> 5000	158
COc1cnc(C(F)F)cc1-c1cc(-n2cccc(F)c2=O)ncc1C(=O)Nc1nc(N2CC3CC(C2)N3C)ns1 [Example 29, 2"-(difluoromethyl)-3-fluoro-5"-methoxy-N-(3-(6-methyl-3,6-diazabicyclo[3.1.1]heptan-3-yl)-1,2,4-thiadiazol-5-y)-2-oxo-2H-[1,2':4',4"-terpyridin]-5'-carboxamide]	244		> 5000	
COc1cnc(C(F)F)cc1-c1cc(-n2cccc(F)c2=O)ncc1C(=O)Nc1nc(N)ns1 [Example 30, N-(3-amino-1,2,4-thiadiazol-5-yl)-2"-(difluoromethyl)-3-fluoro-5"-methoxy-2-oxo-2H-[1,2':4',4"-terpyridin]-5'-carboxamide]			> 5000	34.1
COc1cnc(C(F)F)cc1-c1cc(-n2cccc(F)c2=O)ncc1C(=O)Nc1nc(NC(C)=O)ns1 [Example 31, N-(3-acetamino-1,2,4-thiadiazol-5-yl)-2"-(difluoromethyl)-3-fluoro-5"-methoxy-2-oxo-2H-[1,2':4',4"-terpyridin]-5'-carboxamide]			> 5000	14.4
